According to ChEMBL document CHEMBL2150904, “A new class of pyrimidine nucleosides: inhibitors of hepatitis B and C viruses” (Bioorg Med Chem Lett, 2012):
Values after ≈ are worked out from the molar mass of the structure shown. Active and inactive are the calls of the source. The calls are words filed in the database; no cut-off is given here.

Columns and labels:
Duck hepatitis B virus [1] = experiment: Antiviral activity against Duck hepatitis B virus infected in pekin duck primary hepatocytes assessed as inhibition of viral replication at 10 ug/mL; format: functional; details: Hepatocyte, in Anas platyrhynchos
Hepatitis B virus [2] = experiment: Antiviral activity against Hepatitis B virus infected in human HepG2(2.2.15) cells assessed as inhibition of viral replication at 10 ug/mL; format: functional
Hepatitis C virus [3] = experiment: Antiviral activity against Hepatitis C virus subtype 1a infected in human HuH7 cells at 20 ug/mL after 2 days by q-PCR analysis; format: functional, Hepacivirus hominis; details: Huh-7, 48 h
[4] = Cytotoxicity against human HuH7 cells after 2 days by XTT assay; format: cell-based, Huh-7
Hepatitis C virus [5] = experiment: Antiviral activity against Hepatitis C virus subtype 1a infected in human HuH7 cells at 20 to 50 ug/mL after 2 days by q-PCR analysis; format: functional, Hepacivirus hominis, Huh-7
Hepatitis C virus [6] = experiment: Antiviral activity against Hepatitis C virus subtype 1a infected in human HuH7 cells at 10 ug/mL after 2 days by q-PCR analysis; format: functional, Hepacivirus hominis; details: Huh-7, 48 h
Hepatitis C virus [7] = experiment: Antiviral activity against Hepatitis C virus subtype 1a infected in human HuH7 cells after 2 days by q-PCR analysis; format: functional, organism-based, Hepacivirus hominis; details: Huh-7, 48 h
Duck hepatitis B virus [8] = experiment: Antiviral activity against Duck hepatitis B virus infected in pekin duck primary hepatocytes assessed as inhibition of viral replication; format: functional, organism-based; details: Hepatocyte
Hepatitis B virus [9] = experiment: Antiviral activity against Hepatitis B virus infected in human HepG2(2.2.15) cells assessed as inhibition of viral replication; format: functional, organism-based
Duck hepatitis B virus [10] = experiment: Antiviral activity against Duck hepatitis B virus infected in pekin duck primary hepatocytes assessed as inhibition of viral replication at 0.5 to 1 ug/mL; format: functional, Hepatocyte
Hepatitis B virus [11] = experiment: Antiviral activity against Hepatitis B virus infected in human HepG2(2.2.15) cells assessed as inhibition of viral replication at 0.5 to 1 ug/mL; format: functional
Hepatitis C virus [12] = experiment: Antiviral activity against Hepatitis C virus subtype 1a infected in human HuH7 cells at 5 ug/mL after 2 days by q-PCR analysis; format: functional, Hepacivirus hominis; details: Huh-7, 48 h
Hepatitis C virus [13] = experiment: Potentiation of ribavirin antiviral activity against Hepatitis C virus subtype 1a infected in human HuH7 cells at 5 ug/mL after 2 days by q-PCR analysis; format: functional, organism-based; details: Hepacivirus hominis, Huh-7
Hepatitis C virus [14] = experiment: Ratio of ribavirin EC50 to compound EC50 for Hepatitis C virus subtype 1a; format: functional, Hepacivirus hominis

For `O=C(O)[C@@H]1CC[C@H](n2ccc(=O)[nH]c2=O)O1`, the inhibition at 10 µg/mL (Duck hepatitis B virus [1]) was 0%, the inhibition at 10 µg/mL (Hepatitis B virus [2]) was 0% and the inhibition at 20 µg/mL (Hepatitis C virus [3]) was 0%. The CC50 at 48 h [4] was greater than 250 µg/mL.

In the case of `NC(=O)c1ncn([C@@H]2O[C@H](CO)[C@@H](O)[C@H]2O)n1` [RIBAVIRIN], the “inhibition (INH)” value (Hepatitis C virus [5]) was 50%, the inhibition at 10 µg/mL (Hepatitis C virus [6]) was 35% and the EC50 (Hepatitis C virus [7]) was 20 µg/mL (≈ 81.9 µM).

Compound `Cc1cn([C@H]2C=C[C@@H](C(=O)O)O2)c(=O)[nH]c1=O` has an inhibition at 10 µg/mL (Duck hepatitis B virus [1]) of 63%, an EC50 (Duck hepatitis B virus [8]) of 2.5 µg/mL (≈ 10.5 µM) and an inhibition at 10 µg/mL (Hepatitis B virus [2]) of 58%. It also gave an EC50 (Hepatitis B virus [9]) of 5 µg/mL (≈ 21 µM), an inhibition at 20 µg/mL (Hepatitis C virus [3]) of 0% and a CC50 at 48 h [4] greater than 250 µg/mL.

In the case of `Nc1ccn([C@@H]2CS[C@H](CO)O2)c(=O)n1` [LAMIVUDINE], the “inhibition (INH)” value (Duck hepatitis B virus [10]) was 96% and the “inhibition (INH)” value (Hepatitis B virus [11]) was 88%.

`N=c1ccn([C@H]2CC[C@@H](C(=O)O)O2)c(=O)[nH]1` gave an inhibition at 10 µg/mL (Duck hepatitis B virus [1]) of 80%, an EC50 (Duck hepatitis B virus [8]) of 0.5 µg/mL (≈ 2.22 µM) and an inhibition at 10 µg/mL (Hepatitis B virus [2]) of 60%. It also gave an EC50 (Hepatitis B virus [9]) of 5 µg/mL (≈ 22.2 µM), an inhibition at 20 µg/mL (Hepatitis C virus [3]) of 0% and a CC50 at 48 h [4] greater than 250 µg/mL.

For `COC(=O)[C@@H]1CC[C@H](n2ccc(N)nc2=O)O1`, the inhibition at 10 µg/mL (Duck hepatitis B virus [1]) was 90%, the EC50 (Duck hepatitis B virus [8]) was 0.5 µg/mL (≈ 2.09 µM) and the inhibition at 10 µg/mL (Hepatitis B virus [2]) was 63%. For the same compound, the EC50 (Hepatitis B virus [9]) was 5 µg/mL (≈ 20.9 µM), the inhibition at 10 µg/mL (Hepatitis C virus [6]) was 50% and the inhibition at 5 µg/mL (Hepatitis C virus [12]) was 38%. The Activity (Hepatitis C virus [13]) was “Active”, the CC50 at 48 h [4] was greater than 250 µg/mL and the “Ratio EC50” value (Hepatitis C virus [14]) was greater than 2. It also gave an EC50 (Hepatitis C virus [7]) of 10 µg/mL (≈ 41.8 µM).

Compound `[N-]=[N+]=N[C@H]1C[C@H](n2ccc(=O)[nH]c2=O)O[C@@H]1C(=O)O` has an inhibition at 10 µg/mL (Duck hepatitis B virus [1]) of 62%, an EC50 (Duck hepatitis B virus [8]) of 5 µg/mL (≈ 18.7 µM) and an inhibition at 10 µg/mL (Hepatitis B virus [2]) of 50%. For the same compound, the EC50 (Hepatitis B virus [9]) was 10 µg/mL (≈ 37.4 µM), the inhibition at 20 µg/mL (Hepatitis C virus [3]) was 40% and the CC50 at 48 h [4] was greater than 250 µg/mL. The EC50 (Hepatitis C virus [7]) was greater than 20 µg/mL.

Compound `Cc1cn([C@H]2CC=C(C(=O)O)O2)c(=O)[nH]c1=O` has an inhibition at 10 µg/mL (Duck hepatitis B virus [1]) of 65%, an EC50 (Duck hepatitis B virus [8]) of 2.5 µg/mL (≈ 10.5 µM) and an inhibition at 10 µg/mL (Hepatitis B virus [2]) of 61%. The EC50 (Hepatitis B virus [9]) was 5 µg/mL (≈ 21 µM), the inhibition at 20 µg/mL (Hepatitis C virus [3]) was 50% and the CC50 at 48 h [4] was greater than 250 µg/mL. For the same compound, the EC50 (Hepatitis C virus [7]) was 20 µg/mL (≈ 84 µM).

For `Cc1cn([C@H]2C[C@H](N=[N+]=[N-])[C@@H](C(=O)O)O2)c(=O)[nH]c1=O`, the inhibition at 10 µg/mL (Duck hepatitis B virus [1]) was 55%, the EC50 (Duck hepatitis B virus [8]) was 5 µg/mL (≈ 17.8 µM) and the inhibition at 10 µg/mL (Hepatitis B virus [2]) was 50%. It also gave an EC50 (Hepatitis B virus [9]) of 10 µg/mL (≈ 35.6 µM), an inhibition at 20 µg/mL (Hepatitis C virus [3]) of 30% and a CC50 at 48 h [4] greater than 250 µg/mL.

Work on `CC(=O)O[C@H]1C[C@H](n2cc(F)c(=O)[nH]c2=O)O[C@@H]1C(=O)O` yielded an inhibition at 10 µg/mL (Duck hepatitis B virus [1]) of 0%, an inhibition at 10 µg/mL (Hepatitis B virus [2]) of 0% and an inhibition at 20 µg/mL (Hepatitis C virus [3]) of 0%. It also gave a CC50 at 48 h [4] greater than 250 µg/mL.
